According to the NIST ThermoML archive (doi:10.1021/je4004806):

Test: xn = mol fraction of the nth substance listed
Conditions: 101 kPa, Liquid; for viscosity: Capillary tube (Ostwald / Ubbelohde) method; for mass density: Vibrating tube method

CCCCCO [pentan-1-ol] + CCCCCCCC
Conditions	mass density [kg/m3]	viscosity [mPa·s]
293.15 K, x2 = 0	814.59	4.042
293.15 K, x2 = 0.1004	798.43	2.938
293.15 K, x2 = 0.201	783.65	2.237
293.15 K, x2 = 0.3001	770.3	1.695
293.15 K, x2 = 0.4	757.91	1.311
293.15 K, x2 = 0.4984	746.71	1.046
293.15 K, x2 = 0.5967	736.39	0.863
293.15 K, x2 = 0.6976	726.7	0.737
293.15 K, x2 = 0.7983	717.79	0.652
293.15 K, x2 = 0.8998	709.68	0.588
298.15 K, x2 = 0	810.93	3.518
298.15 K, x2 = 0.1004	794.68	2.568
298.15 K, x2 = 0.201	779.81	1.972
298.15 K, x2 = 0.3001	766.39	1.509
298.15 K, x2 = 0.4	753.94	1.18
298.15 K, x2 = 0.4984	742.7	0.953
298.15 K, x2 = 0.5967	732.34	0.796
298.15 K, x2 = 0.6976	722.64	0.685
298.15 K, x2 = 0.7983	713.72	0.605
298.15 K, x2 = 0.8998	705.59	0.55
303.15 K, x2 = 0	807.24	3.06
303.15 K, x2 = 0.1004	790.89	2.254
303.15 K, x2 = 0.201	775.94	1.747
303.15 K, x2 = 0.3001	762.45	1.349
303.15 K, x2 = 0.4	749.95	1.068
303.15 K, x2 = 0.4984	738.67	0.873
303.15 K, x2 = 0.5967	728.27	0.736
303.15 K, x2 = 0.6976	718.55	0.638
303.15 K, x2 = 0.7983	709.62	0.567
303.15 K, x2 = 0.8998	701.48	0.516
308.15 K, x2 = 0	803.53	2.659
308.15 K, x2 = 0.1004	787.09	1.984
308.15 K, x2 = 0.201	772.05	1.564
308.15 K, x2 = 0.3001	758.49	1.219
308.15 K, x2 = 0.4	745.93	0.971
308.15 K, x2 = 0.4984	734.6	0.802
308.15 K, x2 = 0.5967	724.18	0.682
308.15 K, x2 = 0.6976	714.44	0.596
308.15 K, x2 = 0.7983	705.49	0.532
308.15 K, x2 = 0.8998	697.35	0.486
313.15 K, x2 = 0	799.79	2.334
313.15 K, x2 = 0.1004	783.26	1.755
313.15 K, x2 = 0.201	768.13	1.393
313.15 K, x2 = 0.3001	754.5	1.11
313.15 K, x2 = 0.4	741.88	0.882
313.15 K, x2 = 0.4984	730.52	0.738
313.15 K, x2 = 0.5967	720.07	0.636
313.15 K, x2 = 0.6976	710.3	0.557
313.15 K, x2 = 0.7983	701.34	0.499
313.15 K, x2 = 0.8998	693.2	0.457
318.15 K, x2 = 0	796.03	2.042
318.15 K, x2 = 0.1004	779.4	1.557
318.15 K, x2 = 0.201	764.17	1.249
318.15 K, x2 = 0.3001	750.47	1.01
318.15 K, x2 = 0.4	737.81	0.807
318.15 K, x2 = 0.4984	726.4	0.681
318.15 K, x2 = 0.5967	715.92	0.589
318.15 K, x2 = 0.6976	706.14	0.521
318.15 K, x2 = 0.7983	697.16	0.47
318.15 K, x2 = 0.8998	689.02	0.431
323.15 K, x2 = 0	792.23	1.805
323.15 K, x2 = 0.1004	775.5	1.389
323.15 K, x2 = 0.201	760.18	1.117
323.15 K, x2 = 0.3001	746.41	0.911
323.15 K, x2 = 0.4	733.69	0.74
323.15 K, x2 = 0.4984	722.24	0.63
323.15 K, x2 = 0.5967	711.74	0.549
323.15 K, x2 = 0.6976	701.94	0.488
323.15 K, x2 = 0.7983	692.95	0.442
323.15 K, x2 = 0.8998	684.81	0.406
